Earlier results on one molecule are cited in patent US5279834A, “Pharmaceutical or cosmetic composition containing hydroquinone and kojic acid” (priority 1987, dated 1994).

The conditions of the data set: background statement; The Journal of Investigative Dermatology 73, 354-358 (1979).

On to `CC1=C(/C=C/C(C)=C/C=C/C(C)=C/C(=O)O)C(C)(C)CCC1` [vitamin A acid], for which the irritant character entry is listed as “well known for its irritant character”.
